According to patent US7670838B2, “Coupling of excitation and neurogenesis in neural stem/progenitor cells” (priority 2004, dated 2010):
Entries after “also recorded” stand apart in the source; their conditions may differ.

Legend:
[1] = tested on: adult rat hippocampal NPCs; test: Neurogenesis from adult NPCs in living hippocampal coculture (MAP2ab); format: cell-based
Method: (§1) Stem cell coculture. […] Mitotic inhibitor FUDR (5-fluoro-2′-deoxyuridine) was included with uridine at 0.3 mM unless otherwise indicated at the start of the sixth day post-plating, after cell cycle exit and initiation of differentiation, to allow for long term culture (in some experiments 50 μM D-AP5 (RBI) was also included as noted in the text). Thereafter cultures were supplemented with NT3 to 20 ng/mL every 2-3 days until cocultures were 9-16 days old (control and experimental conditions were always conducted in parallel and therefore were age-matched at all times), at which point neurogenesis assays were performed.
(§2) Excitation of NPCs in coculture. […] Divalent cation concentration was maintained constant in external calcium variation experiments by replacement with equimolar magnesium. […] Persistent stimuli were used except where noted, to mimic areas of local persistent high activity and to avoid rebound or washoff effects. […] An advantage of using depolarization for these brief stimuli is that the logarithmic dependence of depolarization on extracellular potassium described by the Nernst equation obviates the need for extensive washing of the stimulated sample prior to reapplication of the control medium.
(§3) Immunocytochemistry and transfection. Cells were fixed in 4% formaldehyde (EM Sciences)/PBS for 20-30 min, washed 3×5 min in PBS/0.1 M glycine, permeabilized for 5 min in 0.1% Triton/PBS/3% BSA, washed 3×5 min in PBS/glycine, blocked for 1-2 hr in PBS/3% BSA, and incubated overnight at 4° C. in PBS/3%BSA/primary antibodies. Cells were then washed 3×5 min in PBS, incubated for 1 hr at 37° C. in PBS/3%BSA/secondary antibodies, washed 3×10 min in PBS, and mounted in Fluoromount (Electron Microscopy Sciences). TUNEL staining was performed with Apoptag Red (Serologicals). […] Cotransfections were carried out with Lipofectamine 2000 according to the manufacturer's instructions immediately after NPC plating. […] As with all experiments, stimulation or control conditions were initiated 24 hr after transfection on Day 1.
Confocal imaging and analysis. Images were acquired on a Zeiss LSM confocal microscope. Random fields containing GFP+ cells were selected for acquisition under GFP excitation without knowledge of experimental condition, and subsequently scanned using laser lines appropriate to excite the fluorophores corresponding to MAP2ab and other antigens. Data were analyzed using Metamorph software from Universal Imaging. […] Mean data from 12 independent experiments conducted with potassium depolarization were used as the reference point for effects of pharmacological interventions in coculture. For evaluation of proliferation and survival effects, daily cell counts as well as TUNEL and BrdU staining were performed in parallel stimulated and unstimulated cultures. BrdU was applied to cultures at 5 μM for 2 hr, and BrdU staining was conducted with a 20-30 min postfixation and subsequent incubation at 37° C. for 20-30 min in 1 N HCl. For Ca^2+ imaging, x-Rhod-1 AM (Molecular Probes) was loaded at 10 μM for 30 min at 37° C. into cells on the fixed coculture substrate 1-2 days after initiation of mitogen taper.

adult hippocampal NPCs = test: Neurogenesis from adult NPCs on ethanol-fixed hippocampal substrate (MAP2ab); format: cell-based, rat; conditions: for neurogenesis with the agonist as stimulus: FPL 64176 5 μM, NMDA 50 μM
Method: Hippocampal cell culture. […] Tissue was treated with papain (20 U/ml) in 10 ml of this solution with additional (in mM) 1.7 cysteine, 1 CaCl2, and 0.5 EDTA for 45 min at 37° C. The digestion was stopped by replacing the solution with 10 ml of MEM/Earle's salts without L-glutamine along with 20 mM glucose, Serum Extender (1:1000), and 10% heat-inactivated fetal bovine serum containing 25 mg of bovine serum albumin (BSA) and 25 mg of trypsin inhibitor. The tissue was triturated in a small volume of this solution with a fire-polished Pasteur pipette, and ˜100,000 cells in 1 mL plated per coverslip in 24-well plates. Glass coverslips (pre-washed overnight in HCl followed by several 100% EtOH washes and flame sterilization) were coated overnight at 37° C. with 1:50 Matrigel (Collaborative Biomedical Products, Bedford, Mass.). Cells were plated in culture medium, Neurobasal containing 2× B-27 (Life Technologies) and 2 mM Glutamax-I (Life Technologies). […] For lightly fixed tissue experiments, stem/progenitor cells were plated after hippocampal cultures at 7 DIV were exposed to 70% EtOH at −20° C. for 30 min, then washed 2× in sterile PBS.
as §1, §2, §3
Confocal imaging and analysis. Images were acquired on a Zeiss LSM confocal microscope. Random fields containing GFP+ cells were selected for acquisition under GFP excitation without knowledge of experimental condition, and subsequently scanned using laser lines appropriate to excite the fluorophores corresponding to MAP2ab and other antigens. Data were analyzed using Metamorph software from Universal Imaging.

[2] = tested on: adult hippocampal NPCs in vivo; test: In vivo neurogenesis assay (BrdU labeling, hippocampus); set-up: species or system rat; conditions: for neuronal fraction of newborn cells: 1 mg/kg
[3] = rat, in vivo
[4] = tested on: adult rat hippocampal NPCs; test: Miniature EPSC recording of NPC progeny in coculture; format: cell-based; conditions: living coculture
[5] = tested on: proliferating adult-derived NPCs; format: cell-based, rat; conditions: fixed substrate; x-Rhod-1
[6] = tested on: voltage-activated Na+ current; format: cell-based, rat
[7] = Tolerability of treatments in the in vivo neurogenesis assay; conditions: 4 mg/kg
[8] = rats, 1 mg/kg for 1 week, 30 days after treatment
[9] = adult rats, 4 mg/kg daily for 1 week, not statistically significant
[10] = anti-mitotic agent added at day 1

Structure (SMILES): NC(CCCP(=O)(O)O)C(=O)O [D-AP5]
- neurogenesis in the basal (Na) condition [1]: significant inhibition
- excitation-induced neurogenesis ([1]; depolarization or glutamate, D-AP5 50 μM): blocked
- neurogenesis enhancement by excitation (adult hippocampal NPCs; delayed application of D-AP5 on day 5, n=7): 2.76±0.95 fold
- excitation-induced neurogenesis (adult hippocampal NPCs; fixed substrate, K+ depolarization, nifedipine 10 μM, D-AP5 50 μM): inhibited
- basal neurogenesis (adult hippocampal NPCs; fixed substrate, no stimulation, D-AP5 50 μM): inhibited

Structure (SMILES): COC(=O)C1=C(C)NC(C)=C([N+](=O)[O-])C1c1ccccc1C(F)(F)F (centres unmarked) [BayK 8644]
- increase in total newborn cell number versus control [2, 8]: 2.5 fold
- neuronal fraction of newborn cells [2, 8]: 120±11 % of control
- neuronal fraction of newborn cells ([2]; rats, 1 mg/kg for 1 week, 30 days after treatment, listed as BayK): 120%±11%
- total BrdU+ cells per hippocampus (subgranular zone and hilus) ([2]; rats, 1 mg/kg for 1 week, 30 days after treatment, unbiased stereology): 19633±2677
- tolerability [3]: well-tolerated

Structure (SMILES): CN1C(=O)CN=C(c2ccccc2)c2cc(Cl)ccc21 [diazepam]
- GFAP/BrdU double-positive cells (astroglial phenotype) ([2]; rat, in vivo, 4 mg/kg): 58.5%
- NG2/BrdU double-positive cells (oligodendroglial phenotype) ([2]; rat, in vivo, 4 mg/kg): 4.7%
- fraction of newborn (BrdU+) cells assuming the neuronal phenotype (Dcx+) ([2]; rat, in vivo, 4 mg/kg): significant reduction

Structure (SMILES): N[C@@H](CCC(=O)O)C(=O)O [glutamate]
- mean MAP2ab intensity in the resulting neuronal progeny [1]: no effect
- fraction of NPCs becoming neurons (MAP2ab+) ([1]; 50 μM glutamate from day 1): increase; also recorded: increased neurogenesis
- fraction of NPCs becoming neurons (MAP2ab+) ([1]; 50 μM glutamate from day 1, listed as Glu): promoted neurogenesis
- fraction of adult NPCs that received functional excitatory synaptic connections (mEPSCs) [4]: increase
- cells showing an increase in intracellular Ca2+ [5]: 44 of 73

Structure (SMILES): COC(=O)C1=C(C)NC(C)=C(C(=O)OC)C1c1ccccc1[N+](=O)[O-] [nifedipine]
- GFAP/BrdU double-positive cells (astroglial phenotype) [2, 9]: 58.8%
- NG2/BrdU double-positive cells (oligodendroglial phenotype) [2, 9]: 3.5%

Structure (SMILES): NC1=N[C@H](O)[C@H]2[C@H]3O[C@]4(O)O[C@@H]([C@@H](O)[C@@]2(N1)[C@@H]4O)[C@]3(O)CO [TTX, Tetrodotoxin]
- inward Na+ current evoked with a step from -70 mV to -10 mV [6]: reversibly blocked

Structure (SMILES): O=c1[nH]c(=O)n([C@H]2C[C@H](O)[C@@H](CO)O2)cc1F [FUDR, 5-fluoro-2′-deoxyuridine]
- cells killed (adult hippocampal NPCs; [10]): more than 95%
- neurogenic effects of excitation (adult hippocampal NPCs; [10]): abolished

Structure (SMILES): COC(=O)c1c(C)[nH]c(C)c1C(=O)c1ccccc1Cc1ccccc1 [FPL 64176]
- neurogenesis with the agonist as stimulus (adult hippocampal NPCs; fixed substrate): enhancement of neurogenesis
- neurogenesis after three 5 min pulses (adult hippocampal NPCs; fixed substrate, pulses on days 1, 3 and 5): enhanced neurogenesis to a similar extent as continuous excitatory stimulation; also recorded: effective
- fraction of newborn (BrdU+) cells assuming the neuronal phenotype (Dcx+) ([2]; adult rats, 4 mg/kg daily for 1 week): relative increase
- overt dystonias [7]: did not lead to overt dystonias
- treated animals that died shortly before sacrifice ([7]; 7th experimental day): two

Structure (SMILES): CN[C@H](CC(=O)O)C(=O)O [NMDA]
- neurogenesis with the agonist as stimulus (adult hippocampal NPCs; fixed substrate): significant increase
